From the supplement of paper PMC8882468
± gives the standard deviation of the averaged measurements.

Key:
Assay in all cases: CTG-3D luminescence at 96 h relative to day-0 seeding control (ratio to day 0); higher = more growth / less cytotoxicity; PDxO 3D drug screen, 96 h, CTG-3D normalised to day-0 seeding control.
[1] = tested on: HCI-008 (organoid from a HER2-enriched breast cancer xenograft)
[2] = tested on: HCI-002 (organoid from a triple-negative breast cancer xenograft)
[3] = tested on: HCI-017.E2 (organoid from an ER-positive breast cancer xenograft)
[4] = tested on: HCI-023 (organoid from a triple-negative breast cancer xenograft)
[5] = tested on: HCI-024 (organoid from a breast cancer xenograft)

COc1cc2c(Oc3ccc4[nH]c(C)cc4c3F)ncnc2cc1OCCCN1CCCC1 [cediranib]
CTG-3D luminescence at 96 h
Settings	12.5 pM	0.00025 µM	0.005 µM	0.1 µM	1 µM	10 µM	100 µM	625 fM
[1], days in culture: 228	1.83 ± 0.8	1.99 ± 0.16	1.53 ± 0.43	2.02 ± 0.13	1.69 ± 0.41	-0.102 ± 0.18	-0.136 ± 0.19	1.51 ± 0.11
[1], days in culture: 244	1.25	1.7	1.65	2.04	1.62	0.0639	-0.000797	1.95
[2], days in culture: 62	2.64	2.39	2.84	2.46	2.52	0.0315	-0.00243	2.92
[2], days in culture: 82	2.68	2.82	2.11	2.52	2.64	0.0265	0.00109	3.14
[2], days in culture: 91	4.4	3.53	3.54	4.14	3.86	0.0389	-0.00511	4.42
[2], days in culture: 191	2.49	2.65	2.32	2.43	2.47	0.0249	0.000973	2.52
[2], days in culture: 209	2.4	2.26	1.95	1.95	1.93	0.0194	-0.000945	2.14
[2], days in culture: 227	5.77	5.66	5.43	6.23	4.99	-0.101	-0.211	5.65
[3], days in culture: 85	2.93	3.39	2.44	2.78	2.18	2.05	0.00763	2.35
[4], days in culture: 111	1.46	1.23	1.27	1.19	0.911	0.0116	-0.00068	1.41
[4], days in culture: 128	1.2 ± 0.11	1.51 ± 0.53	1.06 ± 0.084	1.52 ± 0.15	0.96 ± 0.19	0.0129 ± 0.002	-0.00109 ± 0.00021	1.48 ± 0.27
[5], days in culture: 105	1.09	1.54	1.4	1.6	1.26	0.0298	-0.000777	1.39
[5], days in culture: 122	1.5	1.9	1.93	1.84	1.65	0.0558	-0.000119	2.28
[5], days in culture: 163	2.12	2.16	1.81	2.23	1.92	0.416	0.00136	2.19

[3]
Settings	CTG-3D luminescence at 96 h
12.5 pM	1.74 ± 0.048
0.00025 µM	2.27 ± 0.082
0.005 µM	2.12 ± 0.093
0.1 µM	2.09 ± 0.069
1 µM	1.751 ± 0.012
10 µM	1.81 ± 0.18
100 µM	0.00813 ± 0.002
625 fM	2.35 ± 0.29

C[C@@H]1COCCN1c1cc(C2([S@](C)(=N)=O)CC2)nc(-c2cc[nH]c3nccc2-3)n1 [ceralasertib]
CTG-3D luminescence at 96 h
Settings	12.5 pM	0.00025 µM	0.005 µM	0.1 µM	1 µM	10 µM	100 µM	625 fM
[1], days in culture: 228	1.99 ± 0.17	1.95 ± 0.15	1.41 ± 0.34	1.81 ± 0.3	1.36 ± 0.054	0.531 ± 0.11	0.212 ± 0.0027	1.72 ± 0.17
[1], days in culture: 244	1.32	2.13	2.05	2.01	1.26	0.71	0.334	2.35
[2], days in culture: 62	2.73	2.51	2.76	3.04	1.81	1.12	0.574	2.93
[2], days in culture: 82	2.71	2.85	2.13	2.4	1.5	0.818	0.274	2.8
[2], days in culture: 91	4.35	3.4	4.02	3.58	2.23	1.3	0.523	4.14
[2], days in culture: 191	2.46	2.89	2.17	2.66	1.91	0.976	0.332	2.6
[2], days in culture: 209	2.37	2.28	1.9	2	1.41	0.743	0.29	2.27
[2], days in culture: 227	6.44	5.73	5.38	5.47	3.08	1.48	0.366	6.05
[3], days in culture: 85	3.08	3.11	2.49	2.26	2.3	1.08	0.827	2.52
[4], days in culture: 111	1.26	1.25	0.897	1.31	0.756	0.365	0.252	1.5
[4], days in culture: 128	1.69 ± 0.07	1.4 ± 0.051	1.37 ± 0.11	1.51 ± 0.065	0.689 ± 0.093	0.634 ± 0.061	0.38 ± 0.18	1.35 ± 0.12
[5], days in culture: 105	1.68	1.61	1.35	1.5	0.841	0.567	0.521	1.93
[5], days in culture: 122	2.12	2.11	1.89	2	1.23	0.742	0.54	2.57
[5], days in culture: 163	1.95	1.91	1.68	2.32	1.38	0.897	0.977	2.29

[3]
Settings	CTG-3D luminescence at 96 h
12.5 pM	1.72 ± 0.058
0.00025 µM	2.28 ± 0.099
0.005 µM	2.17 ± 0.45
0.1 µM	2.23 ± 0.21
1 µM	2.02 ± 0.17
10 µM	1.09 ± 0.1
100 µM	0.8168 ± 0.007
625 fM	2.165 ± 0.019
